Type in all cases: cell-based, human
The test system of one assay is Caco-2 monolayers. Description: Monolayer flux of 3 kDa FITC-dextran, Caco-2. Particulars: 100 ng/ml ligand on days 10 and 12, flux measured on day 15, PBS 20.28 ± 4.72. How it is done: (§1) Cells were plated on transwells as described. Media from the basolateral chamber was removed every other day and replaced with new media. Resistances were followed for 10 days, and either 100 ng/ml FGF2, 100 ng/ml FGF7 or 10 μl PBS were added on days 10 and 12. On day 15, media was removed from both the apical and basolateral chambers. The basolateral chamber was filled with 1 ml HBSS. FITC conjugated to 3 kDa dextran was added to the apical chamber in a volume of 100 μl, at 1 mg/ml in HBSS. After 30, 60 and 90 minutes, 50 μl was removed from the basolateral chamber and transferred to a 96 well plate, and 50 μl HBSS was added to the basolateral chamber. Subsequently, the flux was determined by measurement of FITC-conjugated dextran that crossed the monolayer by measurement with a fluorimeter, stimulating at 480 nm and measuring emission at 530 nm.

The subject of another assay is occludin and ZO-1. In words: Immunostaining for occludin and ZO-1 in Caco-2 cells. Particulars: 100 ng/ml. The method, then:
To determine occludin and ZO-1 expression patterns, cells were plated on transwells as described for TER assays. Media from the basolateral chamber was removed every other day and replaced with new media. Resistances were measured for 10 days, and either 100 ng/ml FGF2, 100 ng/ml FGF7 or 10 μl PBS were added on days 10 and 12. On day 15, media was removed from both the apical and basolateral chambers, and the apical chamber was washed twice with PBS. One ml of 1% (w/v) paraformaldehyde in cacodylate buffer was added to each well, the plates were incubated for 10 minutes at room temperature, and the wells were washed once in PBS. One ml permeabilization media, consisting of 0.2% Triton X-100 and 2% BSA in PBS, was added to each well. After a 10 minute incubation at room temperature, wells were washed three times. 20 μl primary antibodies (rabbit polyclonal anti-human or occludin rabbit polyclonal anti-human ZO-1) diluted 1:20 in 1% goat serum, 0.25% sodium azide in PBS, were added to the apical chamber of three wells per antibody per ligand, and plates were incubated for 1 hour in a humidified chamber. […] Staining was then visualized by fluorescence microscopy. […] A Nikon HB10101AF fluorescence microscope was used to capture images at room temperature using a Hitachi HVC20 camera and Scion image acquisition software. […]

For the next assay, the system named is f-actin. In words: f-actin (phalloidin) staining in Caco-2 cells. Conditions: Caco-2 monolayers. How it is done: (§2) Caco-2 cells were grown to just prior to confluency on collagen IV coated glass slides. Cells were treated with PBS, FGF1, FGF2 and FGF7, and were incubated at 37° C. in a 5% CO2 humidified incubator for 1 hour, 4 hours, 24 hours or 48 hours, as noted. Cells were washed with PBS, fixed with 3.7% formalin for 10 minutes and washed again with PBS. Cells were treated with 0.1% Triton x-100 for 5 minutes to extract lipids. Cells were washed with PBS and preincubated with PBS supplemented with 1% bovine serum albumin. Primary antibodies were added for 4 hours at room temperature, and cells were washed with PBS. […]
(§3) Cells, except those stained with phalloidin, were washed with PBS and stained with diamidino-2-phenylindole (DAPI) for 5 minutes at room temperature (Molecular Probes). […] Cells were examined by confocal microscopy (ZO-1 and phalloidin only), or by fluorescence microscopy. A Nikon HB10101AF fluorescence microscope was used and images were captured at room temperature using a Hitachi HVC20 camera and Scion image acquisition software. […]

The subject of the next assay is T84 monolayers. In words: Monolayer flux of 3 kDa FITC-dextran, T84. Conditions: 100 ng/ml ligand on days 10 and 12, flux measured on day 15, PBS 7.99 ± 0.22. How it is done:
as §1

The next assay deals with phospho-β-catenin. Description: Immunohistochemistry for phospho-β-catenin in Caco-2 cells. How it is done:
as §2, §3

The next assay has as its system TCF/LEF. Description: TCF/LEF assay (TOPFLASH luciferase) in Caco-2 cells. Particulars: compared to PBS and FGF1. The method, then: Caco-2 cells were seeded in 12 well plates such that they would reach 90% confluency in 4 days. Two days after plating, Caco-2 cells were transiently transfected with the TOPFLASH (contains 4 TCF/LEF binding elements) luciferase promoter construct (Promega, Madison, Wis.) as well as a thymidine kinase driven renilla luciferase construct (Promega, Madison, Wis.) as a transfection control vector. Each well was transfected with 1.5 μg DNA using Superfect transfection reagent (Promega, Madison, Wis.). Twenty-four hours after transfection, Caco-2 cells were treated with PBS, FGF1, FGF2 or FGF7, for 1 hour, 4 hours or 24 hours. The Caco-2 cells were processed using a dual-luciferase assay system to measure luciferase activity from both the TOPFLASH constructs and the renilla constructs. All results were standardized to the relative transfection efficiencies as observed from the renilla values.

“Also recorded” adds a separate entry of the source.

As to “FGF2: Recombinant human FGF2, produced as described”, the “Flux across monolayers (3 kDa-dextran conjugated to FITC; function of emission at 530 nm over time)” value in the assay with Caco-2 monolayers was determined as 47.82 ± 4.64; in the assay on T84 monolayers, 37.21 ± 10.25. For the same molecule, the “membrane ruffling (tight junction protein staining)” value with occludin and ZO-1 is “induced ruffling of cell membranes; also recorded: induced notable membrane ruffling”. Further, in the assay with f-actin, the “actin stress fiber formation” value is listed as “induced actin stress fiber formation”. For the same molecule, the “phosphorylated β-catenin localization” value with phospho-β-catenin was “clustered around the nucleus”. Also, the TCF/LEF activity result in the assay on TCF/LEF is given as “increased TCF/LEF activity”.

B1: FGF7: Recombinant human FGF7 from Sigma (protein, UniProt P21781 32-194, looked up)
Fibroblast growth factor 7: CNDMTPEQMATNVNCSSPERHTRSYDYMEGGDIRVRRLFCRTQWYLRIDKRGKVKGTQEMKNNYNIMEIRTVAVGIVAIKGVESEFYLAMNKEGKLYAKKECNEDCNFKELILENHYNTYASAKWTHNGGEMFVALNQKGIPVRGKKTKKEQKTAHFLPMAIT
For B1, the “Flux across monolayers (3 kDa-dextran conjugated to FITC; function of emission at 530 nm over time)” value in the assay on Caco-2 monolayers is on record as 117.14 ± 25.36; in the assay with T84 monolayers it was 33.39 ± 9.24. Besides, the “membrane ruffling (tight junction protein staining)” value in the assay with occludin and ZO-1 is on record as “induced ruffling of cell membranes; also recorded: induced notable membrane ruffling”. For the same molecule, the “actin stress fiber formation” value in the assay on f-actin is “induced actin stress fiber formation”. Moreover, the “phosphorylated β-catenin localization” value with phospho-β-catenin is given as “clustered around the nucleus”. Further, the TCF/LEF activity result with TCF/LEF is on record as “increased TCF/LEF activity”.

These data come from patent US20090156477A1, “Compositions and Methods for Regulating Inflammatory Responses” (Massachusetts Institute of Technology, priority 2005, published 2009).
